For the experiment, the system named is P388 leukemia ip, CD2F1 mice, survival T/C. Description: NCI In Vivo Anticancer Drug Screen. Data for tumor model P388 Leukemia (intraperitoneal) in CD2F1 (CDF1) mice. To be noted: endpoint: median survival time, higher = longer survival. Put shortly: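 Mice carrying the transplanted tumor received test compound or vehicle. Survival was recorded in each group, and the value is the treated-group measurement divided by that of the vehicle-treated control group.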

Setting [1] is: dose: 60.0 mg/kg/injection, schedule: Q01DX005 (ip), vehicle: saline with Tween-80.
Where [2] appears, read: dose: 120.0 mg/kg/injection, schedule: Q01DX005 (ip), vehicle: saline with Tween-80.
The mark [3] stands for this setting: dose: 240.0 mg/kg/injection, schedule: Q01DX005 (ip), vehicle: saline with Tween-80.
Where [4] appears, read: dose: 25.0 mg/kg/injection, schedule: Q01DX009 (ip), vehicle: saline.
Setting [5] is: dose: 100.0 mg/kg/injection, schedule: Q01DX009 (ip), vehicle: saline with Tween-80.
The mark [6] stands for this setting: dose: 200.0 mg/kg/injection, schedule: Q01DX009 (ip), vehicle: saline with Tween-80.
Setting [7] is: dose: 50.0 mg/kg/injection, schedule: Q01DX009 (ip), vehicle: Klucel (hydroxypropylcellulose) (HPC).
Setting [8] is: dose: 100.0 mg/kg/injection, schedule: Q01DX009 (ip), vehicle: Klucel (hydroxypropylcellulose) (HPC).
The mark [9] stands for this setting: dose: 200.0 mg/kg/injection, schedule: Q01DX009 (ip), vehicle: Klucel (hydroxypropylcellulose) (HPC).
Setting [10] is: dose: 25.0 mg/kg/injection, schedule: Q01DX009 (ip), vehicle: saline with Tween-80.
[11] abbreviates: dose: 50.0 mg/kg/injection, schedule: Q01DX009 (ip), vehicle: saline with Tween-80.

21 compounds from PubChem BioAssay AID330 (DTP/NCI, 2004) can be followed below.

“And” between values parts separate entries of the source, which are not always exact repeats. Identical values can stand only once. Inconclusive results and toxic doses are left out.

As for `COC(=O)[C@@]12OC[C@]34[C@H]([C@@H](O)[C@@H]1O)[C@@]1(C)CC(=O)C(O)=C(C)[C@@H]1C[C@H]3OC(=O)[C@H](OC(=O)CC(C)C)[C@@H]24`, the T/C (dose: 0.12 mg/kg/injection, schedule: Q01DX009 (ip), vehicle: saline + alcohol) was 110 % of control and the T/C (dose: 0.25 mg/kg/injection, schedule: Q01DX009 (ip), vehicle: saline + alcohol) is 118 % of control.
Turning to `CC(=O)O[C@H]1CC[C@]2(C=O)[C@H]3CC[C@]4(C)[C@@H](C5=CC(=O)OC5)CC[C@]4(O)[C@@H]3CC[C@]2(O)C1`, the T/C by setting is: (dose: 12.5 mg/kg/injection, schedule: Q04DX002 (ip), vehicle: saline) 94 % of control; (dose: 25.0 mg/kg/injection, schedule: Q04DX002 (ip), vehicle: saline) 94 % of control; (dose: 50.0 mg/kg/injection, schedule: Q04DX002 (ip), vehicle: saline) 100 % of control; (dose: 100.0 mg/kg/injection, schedule: Q04DX002 (ip), vehicle: saline) 91 % of control.
Turning to `O=C1CSc2nc3c(Cl)cc(Cl)cc3c(=O)n21`, the T/C is, setting by setting: (dose: 50.0 mg/kg/injection, schedule: Q01DX005 (ip), vehicle: saline with Tween-80) 108 % of control; (dose: 100.0 mg/kg/injection, schedule: Q01DX005 (ip), vehicle: saline with Tween-80) 100 % of control; (dose: 200.0 mg/kg/injection, schedule: Q01DX005 (ip), vehicle: saline with Tween-80) 105 % of control.
Take `NNc1nncc2c1[nH]c1ccccc12`: the T/C is, setting by setting: (dose: 1.56 mg/kg/injection, schedule: Q01DX001 (ip), vehicle: saline with Tween-80) 102 % of control; (dose: 3.12 mg/kg/injection, schedule: Q01DX001 (ip), vehicle: saline with Tween-80) 102 % of control; (dose: 6.25 mg/kg/injection, schedule: Q01DX001 (ip), vehicle: saline with Tween-80) 105 % of control; (dose: 12.5 mg/kg/injection, schedule: Q01DX001 (ip), vehicle: saline with Tween-80) 103 % of control.
Turning to `Cc1nc2c(cc1C#N)C(NCCO)Oc1ccccc1-2` (stereo not given), the T/C runs as follows: under setting [1], 97 % of control; under setting [2], 97 % of control; under setting [3], 99 % of control.
In the case of `CNC(=O)OCc1c(COC(=O)NC)c(C)n(-c2ccc(Cl)c(Cl)c2)c1C`, the T/C is 154 % of control and 160 % of control (dose: 12.5 mg/kg/injection, schedule: Q01DX009 (ip), vehicle: saline); 165 % of control under setting [4].
Regarding `COC(=O)Nc1cn2c(n1)sc1ccccc12`, the T/C is 100 % of control (dose: 100.0 mg/kg/injection, schedule: Q01DX001 (ip), vehicle: saline with Tween-80); 96 % of control (dose: 200.0 mg/kg/injection, schedule: Q01DX001 (ip), vehicle: saline with Tween-80); 91 % of control (dose: 400.0 mg/kg/injection, schedule: Q01DX001 (ip), vehicle: saline with Tween-80).
For the compound `CC12C=C(C(=O)c3ccccc3)C(CC1)C2(C)C` (stereo not given), the T/C is, setting by setting: under setting [5], 100 % of control; under setting [6], 95 % of control; (dose: 400.0 mg/kg/injection, schedule: Q01DX009 (ip), vehicle: saline with Tween-80) 90 % of control.
In the case of `COC(=O)N1c2ccccc2SC1C#N` (stereo not given), the T/C by setting is: under setting [1], 96 % of control; under setting [2], 112 % of control; under setting [3], 106 % of control.
Take `CC(C)(OCc1ccccc1)c1ccccc1P(c1ccccc1)c1ccccc1`: the T/C by setting is: under setting [7], 101 % of control; under setting [8], 101 % of control; under setting [9], 110 % of control.
Turning to `O=C1CC2(CCCCC2)CC(=O)N1c1ccc(O)c(CN2CCCCC2)c1`, the T/C under setting [7] is 104 % of control, the T/C under setting [8] was 108 % of control and the T/C under setting [9] was 102 % of control.
Turning to `CN1C(C)(C)CC(O)(C(=O)O)CC1(C)C`, the T/C reads like this: (dose: 50.0 mg/kg/injection, schedule: Q01DX005 (ip), vehicle: saline) 94 % of control; (dose: 100.0 mg/kg/injection, schedule: Q01DX005 (ip), vehicle: saline) 91 % of control; (dose: 200.0 mg/kg/injection, schedule: Q01DX005 (ip), vehicle: saline) 87 % of control.
Turning to `NC(N)=NO`, the T/C reads like this: (dose: 8.2 mg/kg/injection, schedule: Q01DX009 (ip), vehicle: water) 110 % of control; (dose: 12.0 mg/kg/injection, schedule: Q01DX009 (ip), vehicle: water) 105 % of control; (dose: 75.0 mg/kg/injection, schedule: Q01DX009 (ip), vehicle: saline) 155 % of control; (dose: 150.0 mg/kg/injection, schedule: Q01DX009 (ip), vehicle: saline) 170 % of control.
Consider `C#CC1(O)CC2c3ccc(OC)cc3CCC2(C)C1` (stereo not given), for which the T/C is 117 % of control (dose: 6.25 mg/kg/injection, schedule: Q01DX009 (ip), vehicle: Klucel (hydroxypropylcellulose) (HPC)); 105 % of control (dose: 12.5 mg/kg/injection, schedule: Q01DX009 (ip), vehicle: Klucel (hydroxypropylcellulose) (HPC)); 112 % of control (dose: 25.0 mg/kg/injection, schedule: Q01DX009 (ip), vehicle: Klucel (hydroxypropylcellulose) (HPC)).
For the compound `Nc1nc2c(C(=O)N3CCCC3)nnn2c2cccc(Cl)c12`, the T/C is 107 % of control under setting [1], 106 % of control under setting [2] and 106 % of control under setting [3].
For the compound `Cc1c2ccccc2c(C)c2c1ccc1ccccc12`, the T/C is 167 % of control (dose: 3.13 mg/kg/injection, schedule: Q01DX009 (ip), vehicle: saline with Tween-80); 163 % of control (dose: 4.0 mg/kg/injection, schedule: Q01DX009 (ip), vehicle: saline with Tween-80); 163 % of control (dose: 6.2 mg/kg/injection, schedule: Q01DX009 (ip), vehicle: saline with Tween-80); 180 % of control and 184 % of control (dose: 6.25 mg/kg/injection, schedule: Q01DX009 (ip), vehicle: saline with Tween-80); 109 % of control (dose: 9.3 mg/kg/injection, schedule: Q01DX009 (ip), vehicle: saline with Tween-80); 175 % of control (dose: 12.5 mg/kg/injection, schedule: Q01DX009 (ip), vehicle: saline with Tween-80). Besides, the T/C by setting is: (dose: 12.5 mg/kg/injection, schedule: Q04DX003 (ip), vehicle: other) 104 % of control; under setting [10], 98 % of control and 100 % of control and 116 % of control; (dose: 25.0 mg/kg/injection, schedule: Q04DX003 (ip), vehicle: other) 116 % of control; under setting [11], 100 % of control; (dose: 50.0 mg/kg/injection, schedule: Q04DX003 (ip), vehicle: other) 116 % of control; (dose: 100.0 mg/kg/injection, schedule: Q04DX003 (ip), vehicle: other) 111 % of control.
In the case of `CCOC(=O)N1CCc2nc3ccc(Cl)cc3cc21`, the T/C is 117 % of control under setting [10], 98 % of control under setting [11], 99 % of control under setting [5] and 108 % of control under setting [6].
For `O/N=C(/Cc1nc2cc(Cl)c(Cl)cc2nc1C/C(=N/O)c1ccc(Cl)cc1)c1ccc(Cl)cc1`, the T/C was 99 % of control under setting [1], 99 % of control under setting [2] and 107 % of control under setting [3].
Regarding `CC(C)(C)OC(=O)NC(CCCNC(=O)OCc1ccccc1)C(=O)O` (stereo not given), the T/C reads like this: (dose: 50.0 mg/kg/injection, schedule: Q01DX005 (ip), vehicle: Klucel (hydroxypropylcellulose) (HPC)) 100 % of control; (dose: 100.0 mg/kg/injection, schedule: Q01DX005 (ip), vehicle: Klucel (hydroxypropylcellulose) (HPC)) 100 % of control; (dose: 200.0 mg/kg/injection, schedule: Q01DX005 (ip), vehicle: Klucel (hydroxypropylcellulose) (HPC)) 99 % of control.
In the case of `C=C(C)C(=O)OCCOc1ccc(/C=N/N=c2/sc3ccccc3n2C)cc1OC`, the T/C was 105 % of control under setting [7], 97 % of control under setting [8] and 108 % of control under setting [9].
Regarding `O=c1cc[nH]c(=S)[nH]1.[Pd]`, the T/C was 89 % of control under setting [4]; 96 % of control (dose: 50.0 mg/kg/injection, schedule: Q01DX009 (ip), vehicle: saline); 91 % of control (dose: 100.0 mg/kg/injection, schedule: Q01DX009 (ip), vehicle: saline); 91 % of control (dose: 200.0 mg/kg/injection, schedule: Q01DX009 (ip), vehicle: saline).
